The source of these data is US8865750B2, “Small molecule inhibitors of RGS proteins” (The Regents of The University of Michigan, priority 2011, dated 2014).

pIC50: −log10 of the molar value. Like-named read-outs stand apart in the source and are kept apart here.

For assay [1], the system named is RGS4. Nature of the assay: FCPIA: Gαo binding to RGS4. The text has this:
(§1) FCPIA Dose Response and Reversibility Experiments:

Another assay deals with RGS8 (Homo sapiens (Human), UniProt P57771). In words: FCPIA: Gαo binding to RGS8.
Text: as §1

Another assay concerns the target RGS16 (Homo sapiens (Human), UniProt O15492). In words: FCPIA: Gαo binding to RGS16. The settings on record: Table 7. On the procedure: as §1
(§2) FCPIA was performed as previously described using chemically biotinylated RGS proteins and AlexaFluor-532 labeled Gα0. (Roman et al., J Biomol Screen, 2009; Blazer, L. L., et al., Mol Pharmacol).
(§3) RGS/Gα binding studies: The binding of biotinylated RGS proteins to fluorescently labeled Gαo was measured by Flow Cytometry Protein Interaction Assay (FCPIA) method previously described (Roman et al., (2009) J Biomol Screen.; Blazer et al., (2010) Curr Protoc Cytom Chapter 13, Unit 13 11 11-15; Roman et al., (2007) Mol Pharmacol 71, 169-175) as were the measures of compound reversibility.

Another assay deals with RGS19 (Homo sapiens (Human), UniProt P49795). Nature of the assay: FCPIA: Gαo binding to RGS19. Conditions: Table 7. On the procedure: as §1, §2, §3
Assay [2] deals with T1, RGS4 (Homo sapiens (Human), UniProt P49798). Nature of the assay: Single turnover GTPase (GAP) assay, RGS4. It counts as biochemical. The protocol: Single Turnover GTPase Measurements:
Compounds were tested for the ability to inhibit the RGS4 and RGS8-stimulated increase in GTP hydrolysis by Gα0 as described previously (Roman, D. L., et al., Mol Pharmacol, 2007. 71(1): p. 169-75; Roof, R. A., et al., Chem Biol Drug Des, 2006. 67(4): p. 266-74).
Compounds were tested for the ability to inhibit the RGS4 and RGS8-stimulated increase in GTP hydrolysis by Gα0 as previously described (Roman, D. L., et al., Mol Pharmacol, 2007. 71(1): p. 169-75; Roof, R. A., et al., Chem Biol Drug Des, 2006. 67(4): p. 266-74).
Single-turnover GAP assay: Experiments were performed as previously described using purified his6-tagged Gαo (Blazer et al., Biochemistry 50, 3181-3192; Roof et al., (2008) Chem Biol Drug Des 72, 111-119).
Target sequence in this assay (P49798 52-205, species assumed): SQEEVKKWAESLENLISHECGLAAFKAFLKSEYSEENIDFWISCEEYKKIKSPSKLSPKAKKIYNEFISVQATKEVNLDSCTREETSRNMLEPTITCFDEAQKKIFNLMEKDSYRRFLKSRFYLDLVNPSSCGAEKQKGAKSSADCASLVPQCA

A further assay concerns the target papain (Carica papaya (Papaya), UniProt P00784). Nature of the assay: biochemical. It counts as biochemical. An excerpt:
Papain (Sigma-Aldrich, St. Louis, Mo.) activity was monitored by the increase in fluorescence caused by the liberation of fluorescein from autoquenched fluorescein-conjugated casein (AnaSpec, San Jose, Calif.).

A further assay deals with PLCβ3 (Homo sapiens (Human), UniProt Q01970). In words: PLCβ inhibition assay. It counts as biochemical. Conditions: Table 7. On the procedure: PLCβ inhibition assay: Lipid vesicles containing 200 μM phosphatidylethanolamine, 50 μM PIP2 (Avanti Polar Lipids), and ˜4000-8000 cpm [^3H]-labeled PIP2 (Perkin-Elmer) per assay were generated by combining the lipids in a borosilicate glass tube and drying the mixture under a stream of nitrogen. Dried lipids were resuspended in 50 mM HEPES pH 7, 80 mM KCl, 2 mM EGTA and 1 mM DTT using a bath sonicator. Activity assays were performed in a final volume of 60 μL containing 3 ng mL^−1 PLCβ3, 50 mM HEPES pH 7, 80 mM KCl, 15 mM NaCl, 0.83 mM MgCl2, 3 mM DTT, 1 mg mL^−1 BSA, 2.5 mM EGTA, 0.2 mM EDTA, 2% DMSO, and enough CaCl2 to give a free concentration of ˜200 nM. […] The reactions were initiated by the addition of liposomes and transferred to 30° C. for 5 min. Reactions were terminated by the addition of 100 μL 10 mg mL^−1 BSA and 200 μL 10% (w/v) ice-cold trichloroacetic acid. The reactions were centrifuged at 8000 g for 5 min to pellet proteins and liposomes, and 200 μL of the resulting supernatant containing free [^3H]-IP3 was measured by scintillation counting (Ghosh et al., (2004) Methods Mol Biol 237, 67-75) GSK-3β inhibition assay: […]

Assay [3] concerns the target T1, RGS4. Nature of the assay: Steady-state GAP assay (malachite green). It counts as biochemical. On the procedure:
Steady-state GAP Assay: Steady-state hydrolysis of unlabled GTP was measured using malachite green in a receptor-independent assay utilizing a mutant Gαi1 (R178M, A326S) (Zielinski et al., (2009) J Biomol Screen 14, 1195-1206). These mutations facilitate the release of GDP from the enzyme making the GTP hydrolysis step rate-limiting (Lielinski et al., supra). […] The reaction is allowed to proceed for 2 hours at room temperature and then quenched with an H2SO4/malachite green dye solution. Immediately after addition of malachite green, sodium citrate was added as a colorimetric stablizer. Released inorganic phosphate was measured as an increase in absorbance (Abs630) from the complex of phosphate with malachite green (Chang, et al., 2008). Background control samples lacking Gα or RGS were used to determine the rate of non-enzymatic GTP hydrolysis.
Target sequence in this assay (P49798 whole entry, species assumed): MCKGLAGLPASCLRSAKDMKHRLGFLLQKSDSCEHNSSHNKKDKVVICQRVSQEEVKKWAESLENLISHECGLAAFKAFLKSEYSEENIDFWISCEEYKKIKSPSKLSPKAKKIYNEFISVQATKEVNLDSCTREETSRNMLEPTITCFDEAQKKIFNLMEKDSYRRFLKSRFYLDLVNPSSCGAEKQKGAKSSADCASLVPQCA

A further assay in a line: Tail suspension test. It counts as in vivo, mice. An excerpt: This Example describes antidepressant activity of compounds of embodiments of the present invention. Antidepressant-like effects of CCG 203769: The tail suspension test in mice is a model of learned helplessness and is used as an assay for antidepressant medications. In this test antidepressant drugs (such as SSRIs) decrease the time the animals spend immobile by increasing escape-like behaviors.

Chain of RGS8 (P57771 other isoform, or with tags, fused parts or gaps): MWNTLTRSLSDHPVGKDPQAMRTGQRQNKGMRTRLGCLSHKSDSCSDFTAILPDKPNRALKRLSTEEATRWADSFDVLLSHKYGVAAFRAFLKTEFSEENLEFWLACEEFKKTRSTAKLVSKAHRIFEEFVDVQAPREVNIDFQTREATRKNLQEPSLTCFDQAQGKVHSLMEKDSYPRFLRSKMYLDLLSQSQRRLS
Chain of papain (P00784 134-345): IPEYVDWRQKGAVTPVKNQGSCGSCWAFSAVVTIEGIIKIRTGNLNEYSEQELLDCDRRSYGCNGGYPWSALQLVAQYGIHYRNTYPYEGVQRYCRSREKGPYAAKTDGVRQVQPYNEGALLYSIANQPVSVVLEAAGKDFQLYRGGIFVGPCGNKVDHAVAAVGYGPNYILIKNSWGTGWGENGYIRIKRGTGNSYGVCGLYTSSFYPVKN
Chain of RGS19 (P49795 whole entry, species assumed): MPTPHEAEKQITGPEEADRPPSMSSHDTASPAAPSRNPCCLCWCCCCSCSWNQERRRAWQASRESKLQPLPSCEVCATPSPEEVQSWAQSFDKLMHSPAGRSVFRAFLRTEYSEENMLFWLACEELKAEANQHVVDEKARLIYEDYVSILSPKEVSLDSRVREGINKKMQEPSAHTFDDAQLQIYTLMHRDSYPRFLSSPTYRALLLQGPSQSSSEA
Chain of RGS16 (O15492 whole entry, species assumed): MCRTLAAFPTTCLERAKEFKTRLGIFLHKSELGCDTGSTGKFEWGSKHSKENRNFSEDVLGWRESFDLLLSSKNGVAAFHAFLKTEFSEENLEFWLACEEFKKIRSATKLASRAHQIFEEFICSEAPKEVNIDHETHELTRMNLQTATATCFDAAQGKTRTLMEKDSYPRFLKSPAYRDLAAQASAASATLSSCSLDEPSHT
Chain of PLCβ3 (Q01970 whole entry, species assumed): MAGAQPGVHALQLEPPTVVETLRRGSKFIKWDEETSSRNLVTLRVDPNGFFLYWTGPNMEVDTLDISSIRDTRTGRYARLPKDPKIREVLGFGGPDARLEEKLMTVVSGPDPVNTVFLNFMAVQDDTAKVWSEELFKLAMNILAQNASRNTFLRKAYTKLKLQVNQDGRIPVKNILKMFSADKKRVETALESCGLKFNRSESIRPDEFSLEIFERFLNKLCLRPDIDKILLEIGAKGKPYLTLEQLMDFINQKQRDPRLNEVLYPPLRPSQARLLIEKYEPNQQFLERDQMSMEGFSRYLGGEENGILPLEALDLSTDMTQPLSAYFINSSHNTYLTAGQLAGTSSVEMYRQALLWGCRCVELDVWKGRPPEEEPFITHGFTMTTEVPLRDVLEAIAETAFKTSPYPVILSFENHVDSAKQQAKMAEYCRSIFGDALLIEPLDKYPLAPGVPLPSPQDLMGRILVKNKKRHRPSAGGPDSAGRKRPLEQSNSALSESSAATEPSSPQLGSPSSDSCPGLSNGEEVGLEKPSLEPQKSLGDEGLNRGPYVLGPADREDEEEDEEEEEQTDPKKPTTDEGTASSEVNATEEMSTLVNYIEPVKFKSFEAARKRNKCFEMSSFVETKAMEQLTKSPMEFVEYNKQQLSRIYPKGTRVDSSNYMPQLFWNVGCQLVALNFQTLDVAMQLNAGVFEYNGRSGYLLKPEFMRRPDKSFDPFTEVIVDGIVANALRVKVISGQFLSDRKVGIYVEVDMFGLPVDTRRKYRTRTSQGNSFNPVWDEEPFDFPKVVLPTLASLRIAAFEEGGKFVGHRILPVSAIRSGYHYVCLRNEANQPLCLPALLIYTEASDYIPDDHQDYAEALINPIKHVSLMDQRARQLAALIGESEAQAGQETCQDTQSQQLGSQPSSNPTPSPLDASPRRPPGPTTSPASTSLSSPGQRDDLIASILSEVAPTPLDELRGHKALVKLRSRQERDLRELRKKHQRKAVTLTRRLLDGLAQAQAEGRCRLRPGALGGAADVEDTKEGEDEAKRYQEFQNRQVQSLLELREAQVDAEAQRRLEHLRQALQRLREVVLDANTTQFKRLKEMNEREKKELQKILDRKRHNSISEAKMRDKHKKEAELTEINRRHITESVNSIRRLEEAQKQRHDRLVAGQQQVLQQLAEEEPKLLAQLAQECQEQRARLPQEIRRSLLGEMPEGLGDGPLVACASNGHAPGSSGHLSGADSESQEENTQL

For the compound `CCCCn1c(=O)sn(CC)c1=O` [CCG-203769, 2-ethyl-4-butyl-1,2,4-thiadiazolidine-3,5-dione], the “reversibility of RGS4 inhibition after washing” value with RGS4 [1] (100 μM CCG-50014 or 500 nM CCG-203769, beads washed) was “irreversible”. Also, the pIC50 at RGS4 [1] (FCPIA, listed as 11b, read-out: IC50 against RGS4) is 7.84; at RGS8 (Table 6, FCPIA, read-out: RGS8 IC50), 4.08. The “RGS4 Hill Slope” value with RGS4 [1] (Table 3) is −0.71. Besides, the “RGS8 Hill Slope” value at RGS8 (Table 3) was −0.56. Also, the IC50 on RGS8 (Table 7, read-out: IC50 (μM), RGS8) is 79 µM; on RGS16 it was 6 µM; on RGS19, 0.14 µM; at papain (Table 7), greater than 100 µM; against PLCβ3 it was greater than 100 µM. For the same compound, the “inhibition of GAP activity of RGS4” value on RGS4 [2] is reported as “potently inhibits the functional effect of RGS4”. The inhibition of papain entry at papain (30 μM) is listed as “unable to inhibit the protease activity of papain”. Besides, at RGS4 [3], the “inhibition of RGS4 effect in steady-state GTPase assay” value is reported as “potently inhibits the functional effect of RGS4”. For the same compound, the “effect on immobility in RGS4 knockout mice” value in the assay “Tail suspension test” (10 mg/kg) was “lost”. In addition, the immobility time result in the assay “Tail suspension test” (IP, significant effect at 10 mg/kg) is “decreases their immobility time in a dose-dependent manner”.

By pIC50 is commonly meant −log10 of the IC50, conventionally taken in molar units. One may read the IC50 as the concentration needed to halve the response being measured.
